Data taken from paper PMC12040169 (PLOS Biology, 2025).

Assay: in vitro
Settings: human, hela cells, % viability

Row | SMILES | viability at 28.5 h, 10 µM [%]
1 | N#CCCN1CCC2(CC1)NCCc1c2[nH]c2ccccc12 [CBK039788] | 89
2 | CCN(CCO)C(=O)c1coc(COc2ccc3sc(C)nc3c2)n1 [CBK307321] | 89.7
3 | CCN1C(=O)CC2(C1=O)C(=O)N(Cc1nc(OC)cc(OC)n1)c1ccccc12 (stereo not drawn) [CBK075510] | 75.8
4 | CN(CC(=O)NNC(=O)c1cccnc1)S(=O)(=O)c1cc(Cl)ccc1Cl [CBK267388] | 92.2
5 | Cc1nn(Cc2cccc(C(=O)Nc3ccc(S(=O)(=O)N4CCCCC4)cc3)c2)c(C)c1Cl [CBK265815] | 81.9
6 | COc1ccc(C)cc1C1(CNC(=O)C2CC2C(=O)O)CCOCC1 (stereo not drawn) [CBK304492] | 82
7 | c1ccc(CCn2c3ccccc3c3nnc(SCc4ccc5nonc5c4)nc32)cc1 [CBK267516] | 97.4
8 | CN(C)CCN(C)C(=O)c1ccc(-c2cccc(C(=O)NCCO)c2)nc1NCC1CC1 [CBK076603] | 94
9 | O=C(CCn1cccn1)N1CCC(c2cc3ncccc3[nH]2)CC1 [CBK284457] | 83.6
10 | CC(=O)c1sc(NC(=O)Cc2ccc(C)cc2)nc1C [CBK287760] | 89.3
11 | CC(C)(C)OC(=O)N1CCN(Cc2nc(-c3ccccc3)no2)CC1 [CBK306465] | 99.8
12 | N#Cc1ccsc1NC(=O)CSc1nnc[nH]1 [CBK267221] | 87.7
13 | O=C(CSc1n[nH]c(=S)s1)NCCc1ccccc1 [CBK023445] | 99.2
14 | O=c1n(CC2CCCCC2)c2ccccc2n1S(=O)(=O)CCc1cccc2ccccc12 [CBK106525] | 101
15 | CC1CCN(Cc2ccc(-c3ccc(CNC(=O)c4ccc5c(c4)OC(F)(F)O5)s3)cc2)CC1 [CBK166113] | 107
16 | O=C(NCc1ccncc1)c1nccnc1-c1ccc(COc2ccccc2)cc1 [CBK050836] | 88.1
17 | CC1CC(=O)N(c2cccc(C(=O)Nc3cccc(-c4cccc(F)c4)c3)c2)C1=O (stereo not drawn) [CBK285734] | 103
18 | CCOC(=O)CNC(=O)c1cc(Br)c(OC)c(OC)c1 [CBK058454] | 116
19 | CC1CN(C(=O)CCn2c(C(F)F)cc3cccnc32)CC(C)O1 (stereo not drawn) [CBK284984] | 95.3
20 | CCOC(=O)C1CCCN(Cc2c(C)nn(C)c2Cl)C1 (stereo not drawn) [CBK304838] | 92.4
21 | Cn1c(=O)n(CCN2CCOCC2)c(=O)c2c1nc1n2CCN1c1ccc(Oc2ccccc2)cc1 [CBK269202] | 91.4
22 | COc1ccc2c(=O)c3c(oc2c1)C(=O)N(CCN(C)C)C3c1ccccn1 (stereo not drawn) [CBK287781] | 98.3

Row | SMILES | viability at 28.5 h, 10 µM [%]
23 | O=C1c2ccccc2NC(c2ccc(O)cc2)N1/N=C/c1ccc(O)cc1 (stereo not drawn) [CBK262985] | 84.5
24 | O=C1CNC(=O)C2(C/C=C/C[C@H]3COCC[C@@H]3N1)CCN(CC(=O)N1CCCCC1)CC2 [CBK292137] | 111
25 | O=C(c1ccc(F)cc1)C1CCN(CC(O)COc2cccc3c2CCCC3)CC1 (stereo not drawn) [CBK003583] | 101
26 | O=C(c1cc(-c2cccnc2)[nH]n1)N1CCC(c2ccccc2)C1 (stereo not drawn) [CBK281849] | 101
27 | Cc1nnc2sc(-c3ccc(NC(=S)NC(=O)c4ccc(-c5ccccc5[N+](=O)[O-])o4)cc3)nn12 [CBK266803] | 86.4
28 | C[C@@H]1CN(Cc2ccccc2)C[C@H](C)N1 [CBK001569] | 86.1
29 | Cc1ccc(SCCNc2nc3c([nH]2)c(=O)n(C)c(=O)n3C)cc1 [CBK269887] | 92.7
30 | Oc1c2c(nn1Cc1ccccc1)CCCC2 [CBK089898] | 87.4
31 | CCCCOC(=O)CCn1c(=S)oc2ccccc21 [CBK019181] | 87.9
32 | CCCSc1nc2cc(C(=O)OC)ccc2c(=O)n1CC1CCCO1 (stereo not drawn) [CBK306031] | 91
33 | CCOc1ccc(NC(=O)c2c(O)c3ccccc3n(CC)c2=O)cc1 [CBK287771] | 107
34 | O=C(Nc1ccc2nc(-c3ccc(-c4nc5ccc(NC(=O)c6cccc7ccccc67)cc5[nH]4)cc3)[nH]c2c1)c1cccc2ccccc12 [CBK261160] | 120
35 | CCN(C(=O)c1ccncc1)C(CC1CCCCC1)c1ccccc1 (stereo not drawn) [CBK061674] | 86.9
36 | Cc1nn(C(C)C)c(C)c1CN(CCO)Cc1cccs1 [CBK283016] | 86
37 | Cn1nccc1CN1CCC(Oc2ccccc2F)CC1 [CBK281618] | 92
38 | CC(=O)Nc1cccc(-n2c(C)nnc2SCC2CCCCC2)c1 [CBK304590] | 86.3
39 | O=C1C(=CNCCC(c2ccccc2)c2ccccc2)C(=O)c2ccccc21 [CBK262987] | 97
40 | N#Cc1ccsc1NS(=O)(=O)c1ccc(Cl)c(Cl)c1 [CBK034735] | 95
41 | c1ccc(-c2nnc(COc3ccc(-c4cnc5ccccc5n4)cc3)o2)cc1 [CBK269707] | 90.4
42 | Cc1n[nH]c(C)c1CCC(=O)N/N=C/c1ccccn1 [CBK262887] | 92.9
43 | COc1cc(CNc2cc(C(=O)O)ccc2C)cc(Br)c1OC [CBK269679] | 95.3
44 | NC(=O)C1(Cc2ccc(-c3ccccc3)cc2)CCN(C(=O)CCc2ccccc2)CC1 [CBK285772] | 102

Row | SMILES | viability at 28.5 h, 10 µM [%]
45 | Cc1cccc(OCC2CCCN(C(=O)C3(Cn4cccn4)CC3)C2)c1 (stereo not drawn) [CBK306578] | 102
46 | CCN(NC(=O)c1cc2cccc(OC)c2o1)c1ccc(C)cc1 [CBK161484] | 106
47 | Cc1ccc(-c2nnc3c4ccccc4c(C)nn23)cc1S(=O)(=O)NC(C)c1ccccc1 (stereo not drawn) [CBK266715] | 94.5
48 | Cc1ccc(S(=O)(=O)Nc2nc3ccccc3nc2Nc2ccc(C(=O)O)cc2)cc1C [CBK300516] | 91.5
49 | CCNC(=O)N[C@H]1CO[C@H]2[C@@H]1OC[C@@H]2Nc1nccc(-c2ccc(OC)cc2)n1 [CBK289528] | 89.3
50 | N#Cc1ccccc1-c1ccc(CSc2cccs2)cc1 [CBK002638] | 90.5
51 | CS(=O)(=O)N(Cc1ccc(Cl)cc1)c1ccc(C(=O)N2CCC(C(N)=O)CC2)cc1 [CBK265327] | 89.7
52 | CCNC(=O)NC[C@H]1C[C@@H]2CCN1C[C@@H]2c1cc(-c2ccc(F)cc2)nn1C [CBK289110] | 88
53 | CCCS(=O)(=O)Nc1cccc2[nH]ccc12 [CBK159488] | 97.5
54 | Cc1cc2c(cc3c(=O)n(CC(=O)NC4CCCC4)nc(C)n32)s1 [CBK284072] | 96.9
55 | COc1ccccc1Oc1ccc(S(=O)(=O)N2CCOCC2)cc1S(=O)(=O)N1CCOCC1 [CBK265176] | 97.2
56 | COCCNc1cc(-c2ccccc2N(C)C)ncn1 [CBK090790] | 109
57 | COc1ccccc1-c1cc2nc(C)cc(Nc3ccccc3)n2n1 [CBK287806] | 97.3
58 | Cc1ccn(CCNC(=O)CSc2nccc3ccccc23)n1 [CBK282678] | 104
59 | COc1ccc(NC(=O)C2C3CCC(C3)C2C(=O)O)cc1OC (stereo not drawn) [CBK263684] | 95.3
60 | Cn1nc(C2CCN(Cc3ccccc3)CC2)c2cccnc21 [CBK285095] | 94.9
61 | Cc1ccc2cc(S(=O)(=O)NCCC(=O)O)ccc2c1 [CBK267569] | 96.5
62 | CC(=O)c1ccc(NC(=O)N2Cc3nc[nH]c3C[C@H]2c2nc(-c3ccc(F)cc3)no2)cc1 [CBK288971] | 83.6
63 | COc1cc(C)nc(NC(=O)Nc2cccc(Cl)c2)n1 [CBK269828] | 94.2
64 | COc1ccc(S(=O)(=O)Nc2nccnc2-c2ccc(CN3C(=O)CCC3=O)cc2)cc1 [CBK050699] | 110
65 | COc1ccc(-c2csc(Nc3cccc(C(=O)O)c3)n2)cc1 [CBK286924] | 86.7
66 | Cc1nnc(Sc2nc3ccccc3nc2NC(C)C)s1 [CBK093731] | 90.6

Row | SMILES | viability at 28.5 h, 10 µM [%]
67 | Nc1nnc(SC/C=C/CSc2nnc(N)s2)s1 [CBK263092] | 90.3
68 | CN(C)CCCN(Cc1ccco1)Cc1cccn1-c1ccccn1 [CBK283180] | 99.8
69 | CCCCC(=O)Nc1nc(-c2ccc(S(=O)(=O)N3CCOCC3)cc2)cs1 [CBK096107] | 86
70 | CC(C)(C)C(=O)N1CCC(n2nc(-c3ccco3)ccc2=O)CC1 [CBK282341] | 99.3
71 | CCN(CC)C(=O)Cn1nc(C)n2c(cc3ccsc32)c1=O [CBK284104] | 97.3
72 | CC(C)C(NS(=O)(=O)c1ccc(Oc2ccccc2Cl)cc1)C(=O)O (stereo not drawn) [CBK267195] | 100
73 | CN(c1ncc(-c2ccccc2)cc1C(=O)NCc1cccnc1)S(C)(=O)=O [CBK076507] | 98.9
74 | FC(F)(F)c1cccc(OCc2nnn[nH]2)c1 [CBK269466] | 88.4
75 | c1coc(-c2nc3n(n2)CCS3)c1 [CBK007565] | 84.7
76 | O=[N+]([O-])c1ccc(CN2CCC(Oc3nccnc3OCC3COc4ccccc4O3)CC2)cc1 (stereo not drawn) [CBK082984T] | 99.1
77 | CC(=O)N1CCC[C@H]2NC(=O)CNC(=O)C3(C/C=C/C[C@H]21)CCN(C(=O)c1ccon1)CC3 [CBK292057] | 109
78 | O=C(NCC1(c2cccc(Br)c2)CCOCC1)C1CC(O)CN1 (stereo not drawn) [CBK304257] | 95.9
79 | CN(Cc1ccccc1)c1nc(C(F)(F)F)cc(=O)[nH]1 [CBK000319] | 92
80 | Cc1cc(C)n2nc(C(=O)N/N=C/c3ccc(O)cc3)nc2n1 [CBK261765] | 85.4
81 | Cc1c(C(=O)Nc2sc3c(c2C(=O)NCc2cccnc2)CCC3)oc2ccccc12 [CBK269491] | 87.8
82 | CC(=O)NCC(=O)N1CC[C@@H]2NC(=O)CNC(=O)C3(CCCC[C@H]2C1)CCN(C(C)=O)CC3 [CBK292014] | 91.8
83 | CCc1noc(C)c1C(=O)NCCN1CC(C)CC(C)C1 (stereo not drawn) [CBK282081] | 113
84 | COc1ccc2c(c1)C(O)CC1(CCN(CC(O)c3ccc(-c4ccccc4)cc3)CC1)O2 (stereo not drawn) [CBK286398] | 101
85 | COc1ccccc1Cc1cccc(C2CCN(C(=O)c3ccc(F)cc3)CC2)n1 [CBK286237] | 108
86 | CCCCOc1ccccc1NC(=O)CC1NCCNC1=O (stereo not drawn) [CBK269299] | 94.7

Same assay, conditions: human, hela cells, % viability, bulk resorufin, single well

Row | SMILES | viability at 28.5 h, 10 µM [%]
87 | COc1ccccc1CCNCc1ccc(Br)cc1 [CBK015036G] | 96.2
